Results: patent US12139498B1, “Positive allosteric modulators of the muscarinic acetylcholine receptor M4” (Vanderbilt University, priority 2023, dated 2024)

What was measured:
[1] = MDCK-MDR1 permeability / efflux; type: in vitro ADME; details: dog, MDCK-MDR1
Experimental: (§1) Compound 70 was tested in several in in vitro assays to investigate both metabolism and pharmacokinetics. These assays may be performed according to known methods as generally described in the following references: Conde-Ceide et al. ACS Med. Chem. Lett. 2015, 6, 716-720; Morris et al. J. Med. Chem. 2014, 57, 10192-10197; and Bubser et al. ACS Chem. Neurosci. 2014, 5, 920-942.

[2] = tested on: MDCK-MDR1; experiment: MDCK-MDR1 permeability / efflux; type: in vitro ADME; details: efflux ratio
Experimental: as §1

[3] = In vivo pharmacokinetics in cynomolgus monkey; details: plasma
Experimental: Compound 70 was tested in several in vivo assays and the pharmacokinetic parameters listed in the following table may be determined from pharmacokinetic studies in rat, dog, or cynomolgus monkey, according to known methods as generally described in the following references: Garrison et al. J. Med. Chem. 2022, 65, 6273-6286; Felts et al. J. Med. Chem 2017, 60, 5072-5085; and Yu et al. J. Med. Chem. 2021, 64, 4709-4729.

## Cc1c(N2CCc3nc(C4(F)CC4)sc3C2)nc2nn(C)c(=O)n2c1C [Compound 70, 7-(2-(1-fluorocyclopropyl)-6,7-dihydrothiazolo[5,4-c]pyridin-5(4H)-yl)-2,5,6-trimethyl-[1,2,4]triazolo[4,3-a]pyrimidin-3(2H)-one]
[1]
  Papp A→B: 36.7 ×10⁻⁶ cm/s
[2]
  MDCK-MDR1 ER: 0.9 (Papp A→ B:
[3]; read-out: Cyno CLp
  clearance: 4.9 mL/min/kg
[3]; read-out: Cyno Elim. t1/2 (converted)
  half-life: 4.2 h
[3]; read-out: Cyno Vss
  Vd: 1.4 L/kg
